Source: patent US20050228180A1, “Alpha, omega-dicarboximide derivatives as useful uro-selective a1a adrenoceptor blockers” (priority 2002, published 2005)
pKi: −log10 of the molar value.

What was measured:
α1B adrenoceptor = target: T1, α1B adrenoceptor (Rattus norvegicus, UniProt P15823); experiment: Radioligand binding, [3H] prazosin displacement, rat liver membranes; conditions: read-out: Affinity (Ki) α1B (Rat Liver)
T1 construct: from tissue; host or cells: rat liver membranes
T1 sequence (P15823 1-515): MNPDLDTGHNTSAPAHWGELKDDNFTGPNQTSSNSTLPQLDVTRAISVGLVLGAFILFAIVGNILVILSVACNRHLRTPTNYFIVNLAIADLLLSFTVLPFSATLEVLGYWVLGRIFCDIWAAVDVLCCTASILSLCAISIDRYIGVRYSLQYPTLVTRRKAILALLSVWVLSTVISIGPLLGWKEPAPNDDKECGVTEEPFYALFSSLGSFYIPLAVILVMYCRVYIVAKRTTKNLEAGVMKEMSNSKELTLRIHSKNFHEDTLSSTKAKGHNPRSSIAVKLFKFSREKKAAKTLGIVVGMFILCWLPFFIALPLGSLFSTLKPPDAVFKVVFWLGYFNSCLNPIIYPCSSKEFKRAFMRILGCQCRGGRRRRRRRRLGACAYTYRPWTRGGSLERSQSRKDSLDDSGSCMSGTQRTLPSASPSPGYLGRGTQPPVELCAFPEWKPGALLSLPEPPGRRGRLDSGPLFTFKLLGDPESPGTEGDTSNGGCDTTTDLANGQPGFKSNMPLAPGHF
Outline: (§1)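 Rat membranes (submaxillary for α1A, liver for α1B; 150-250 μg protein) incubated with [3H]prazosin and compound in Tris 50 mM/EDTA 5 mM pH 7.4, 1 h at 24-25° C. Nonspecific binding with 300 nM prazosin; filtration, counting; Ki via Cheng–Prusoff.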

α1A adrenoceptor = target: T2, α1A adrenoceptor (Rattus norvegicus, UniProt P43140); experiment: Radioligand binding, [3H] prazosin displacement, rat submaxillary membranes; conditions: for pKi: [3H] prazosin displacement, rat submaxillary membranes, read-out: Affinity (Ki) α1A (Rat Submaxillary); for α1B/α1A: ratio of binding affinities, rat liver / rat submaxillary
T2 construct: from tissue; host or cells: rat submaxillary gland membranes
T2 sequence (P43140 1-466): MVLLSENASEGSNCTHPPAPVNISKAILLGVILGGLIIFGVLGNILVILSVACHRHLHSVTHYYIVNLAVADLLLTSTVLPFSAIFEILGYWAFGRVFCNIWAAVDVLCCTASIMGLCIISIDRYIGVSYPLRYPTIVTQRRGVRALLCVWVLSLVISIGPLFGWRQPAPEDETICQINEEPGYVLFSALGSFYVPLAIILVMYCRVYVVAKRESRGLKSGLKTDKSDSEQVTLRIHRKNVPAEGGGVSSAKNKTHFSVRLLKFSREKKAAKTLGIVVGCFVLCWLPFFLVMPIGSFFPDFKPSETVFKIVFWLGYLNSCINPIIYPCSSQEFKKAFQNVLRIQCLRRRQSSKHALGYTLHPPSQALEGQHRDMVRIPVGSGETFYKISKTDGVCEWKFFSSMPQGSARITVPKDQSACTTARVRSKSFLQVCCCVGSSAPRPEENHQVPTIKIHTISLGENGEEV
Outline: as §1

[1] = target: T3, α1B adrenoceptor (spleen) (Rattus norvegicus, UniProt P15823); experiment: In vitro functional assay, isolated spleen, phenylepinephrine contraction; assay type: cell-based; conditions: read-out: α Adrenoceptor Subtype (pKB) α1B (converted)
T3 construct: Isolated tissues were mounted in organ bath containing Krebs Henseleit buffer; from tissue; host or cells: isolated rat spleen
T3 sequence (P15823 1-515): T1 sequence (P15823 1-515)
Source text: In order to study selectivity of action of these compounds towards different a-adrenoceptor subtypes, the ability of these compounds to antagonise (α1D) prostate (α1A) and spleen (α1B) was studied. Aorta and spleen tissues were isolated from urethane anaesthetized (1.5 g/kg) male wister rats. Isolated tissues were mounted in organ bath containing Krebs Henseleit buffer of the following composition (mM): NaCl 118; KCl 4.7; CaCl2 2.5; MgSO4 7H2O 1.2; NaHCO3 25; KH2PO4 1.2; glucose 11.5. Buffer was maintained at 37° C. and aereated with a mixture of 95% O2 and 5% CO2. A resting tension of 2 g (aorta) or 1 g (spleen and prostate) was applied to tissues. Contractile response was monitored using a force displacement transducer and recorded on chart recorders. Tissues were allowed to equilibrate for 2 hours. At the end of equilibration period, concentration response curves to norepinephrine (aorta) and phenylepinephrine (spleen and prostate) were obtained in the absence and presence of tested compound (at concentration of […]). Antagonist affinity was calculated and expressed as pKB values in Table II.

[2] = target: T4, α1A adrenoceptor (prostate) (Rattus norvegicus, UniProt P43140); experiment: In vitro functional assay, isolated prostate, phenylepinephrine contraction; assay type: cell-based; conditions: for Selectivity α1B/α1A / Selectivity α1D/α1A: functional, from pKB; for Kb: rat prostate, phenylepinephrine, read-out: α Adrenoceptor Subtype (pKB) α1A (converted)
T4 construct: from tissue; host or cells: isolated prostate tissue
T4 sequence (P43140 1-466): T2 sequence (P43140 1-466)
Outline: (§2)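 Rat aorta, spleen and prostate strips from urethane-anaesthetised male Wistar rats in Krebs-Henseleit at 37 °C (95% O2/5% CO2), 2 g or 1 g resting tension, 2 h equilibration. Norepinephrine (aorta) or phenylephrine (spleen, prostate) contraction curves run without and with compound at […]; antagonist affinity given as pKB.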

α1D adrenoceptor (aorta) = target: T5, α1D adrenoceptor (aorta) (Rattus norvegicus, UniProt P23944); experiment: In vitro functional assay, isolated aorta, norepinephrine contraction; assay type: cell-based; conditions: read-out: α Adrenoceptor Subtype (pKB) α1D (converted)
T5 construct: Isolated tissues were mounted in organ bath containing Krebs Henseleit buffer; from tissue; host or cells: isolated rat aorta
T5 sequence (P23944 1-561): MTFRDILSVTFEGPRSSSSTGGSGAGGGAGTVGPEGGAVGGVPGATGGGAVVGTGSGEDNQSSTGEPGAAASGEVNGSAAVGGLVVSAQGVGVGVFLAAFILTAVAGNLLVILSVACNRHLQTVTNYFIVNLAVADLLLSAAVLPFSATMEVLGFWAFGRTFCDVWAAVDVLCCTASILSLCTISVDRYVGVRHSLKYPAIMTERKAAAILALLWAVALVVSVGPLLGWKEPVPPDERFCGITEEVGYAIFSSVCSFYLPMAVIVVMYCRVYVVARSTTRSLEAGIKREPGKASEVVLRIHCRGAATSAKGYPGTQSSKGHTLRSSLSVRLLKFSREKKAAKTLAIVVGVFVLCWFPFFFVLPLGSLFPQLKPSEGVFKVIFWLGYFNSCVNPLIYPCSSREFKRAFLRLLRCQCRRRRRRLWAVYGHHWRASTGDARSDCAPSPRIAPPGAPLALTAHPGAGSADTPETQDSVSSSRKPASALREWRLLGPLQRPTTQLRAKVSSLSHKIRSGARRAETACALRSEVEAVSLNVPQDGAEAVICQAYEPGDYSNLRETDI
Outline: as §2

α1-adrenoceptor = conditions: background statement; cited from earlier work

| pKi (α1B adrenoceptor) | pKi (α1A adrenoceptor) | α1B/α1A (α1A adrenoceptor) | Kb [1] [nM] | melting point [°C] | Selectivity α1B/α1A [2] | Selectivity α1D/α1A [2] | Kb [2] [nM] | Kb (α1D adrenoceptor (aorta)) [nM] | SMILES | α1-adrenergic blocking activity (pKi) (α1-adrenoceptor) |
| --- | --- | --- | --- | --- | --- | --- | --- | --- | --- | --- |
| 6.98 | 9.52 | 350 | 67.6 | 186 to 190 | 132 | 4.8 | 0.513 | 2.45 | CC(C)Oc1ccccc1N1CCN(CCCN2C(=O)C3CC=CC(O)C3C2=O)CC1.Cl (stereo not shown) [Compound No. 41, 2-[3-{4-(2-Isopropoxyphenyl)piperazin-1-yl}propyl]-4-hydroxy-3a,4,7,7a-tetrahydro-1H-isoindole-1,3(2H)-dione hydrochloride] | – |
| < 6.00 | 7.66 | >45 | 7.08 | 75 to 80 | 2.9 | 33 | 2.45 | 81.3 | CCOc1ccccc1N1CC[N+]([O-])(CCCN2C(=O)C3CC=CCC3C2=O)CC1 (stereo not shown) [compound 04, 2-[3-{4-(2-Ethoxyphenyl)piperazin-1-yl, 1-N-oxide}propyl]-3a,4,7,7a-tetrahydro-1H-isoindole-1,3(2H)-dione] | – |
| – | – | – | – | – | – | – | – | – | COc1cc2nc(N3CCN(C(=O)c4ccco4)CC3)nc(N)c2cc1OC [prazosin] | > 8 |
